Test results reported in patent US8314092B2, “Substituted [(5H-pyrrolo[2,1-c][1,4]benzodiazepin-11-yl)piperazin-1-yl]-2,2-dimethylpropanoic acid compounds as dual activity H1 inverse agonists/5-HT2A antagonists” (Eli Lilly and Company, priority 2011, dated 2012).
Structures can show the parent of a compound that is named as a salt.

Key:
[1] = molecular target: T1, 5-HT2A Receptor (Rattus norvegicus, UniProt P14842); test: 5-HT2A receptor occupancy in vivo (MDL 100907 tracer); conditions: oral gavage, 1 hour before tracer, read-out: 5-HT2A receptor occupancy EC50
T1 construct: samples of the frontal cortex and cerebellum are removed; from tissue; host or cells: living rat; frontal cortex (cerebellum as null region)
T1 sequence (P14842 whole entry): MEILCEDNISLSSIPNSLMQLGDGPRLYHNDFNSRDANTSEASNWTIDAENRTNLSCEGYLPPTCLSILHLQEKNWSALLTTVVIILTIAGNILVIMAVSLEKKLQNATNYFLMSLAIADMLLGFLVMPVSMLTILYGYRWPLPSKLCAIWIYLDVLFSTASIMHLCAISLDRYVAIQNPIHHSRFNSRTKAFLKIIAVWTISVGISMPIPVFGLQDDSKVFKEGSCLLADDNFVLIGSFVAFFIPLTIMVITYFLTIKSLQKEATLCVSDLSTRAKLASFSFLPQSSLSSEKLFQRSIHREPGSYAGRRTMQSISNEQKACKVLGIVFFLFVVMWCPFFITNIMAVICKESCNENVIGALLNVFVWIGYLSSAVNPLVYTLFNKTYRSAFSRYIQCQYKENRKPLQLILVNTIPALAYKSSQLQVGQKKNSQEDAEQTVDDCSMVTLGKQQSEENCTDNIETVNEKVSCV
Protocol: Briefly, male Sprague-Dawley rats (Harlan Sprague-Dawley, Indianapolis, Ind.) weighing approximately 230-280 grams are given ad lib access to food and water until the beginning of the 3-hour experimental protocol. 1 mg/kg ketanserin (non-selective 5-HT2A antagonist) is used as a positive control to establish assay validity. Test compounds or control are administered by oral gavage in a vehicle comprised of 20% hydroxypropyl beta-cyclodextrin. MDL 100907 ((R) -(+)-α-(2,3-Dimethoxyphenyl)-1-[2-(4-fluorophenyl)ethyl]-4-piperidinemethanol), a selective 5-HT2A antagonist, is used as a tracer. […] It is at the time of tracer administration that receptor occupancy (RO) is considered to be measured. […] The level of MDL 100907 tracer is measured in each cortical and cerebellar sample. RO is calculated using the well-established ratio method which employs a region of high receptor density representative of total binding (frontal cortex) normalized by an area without or with very low levels of receptor (cerebellum). […]
MDL 100907 Analysis: Cortex and cerebellar samples are weighed and placed in conical centrifuge tubes on ice. […] Standards are prepared by adding known quantities of analyte to brain tissue samples from non-treated rats and processing as described above. […]

[2] = molecular target: T2, human recombinant H1 receptor (Homo sapiens, UniProt P35367); test: H1 competition binding assay ([3H]-Pyrilamine SPA); parameters: expressed in transfected cells
T2 sequence (P35367 whole entry): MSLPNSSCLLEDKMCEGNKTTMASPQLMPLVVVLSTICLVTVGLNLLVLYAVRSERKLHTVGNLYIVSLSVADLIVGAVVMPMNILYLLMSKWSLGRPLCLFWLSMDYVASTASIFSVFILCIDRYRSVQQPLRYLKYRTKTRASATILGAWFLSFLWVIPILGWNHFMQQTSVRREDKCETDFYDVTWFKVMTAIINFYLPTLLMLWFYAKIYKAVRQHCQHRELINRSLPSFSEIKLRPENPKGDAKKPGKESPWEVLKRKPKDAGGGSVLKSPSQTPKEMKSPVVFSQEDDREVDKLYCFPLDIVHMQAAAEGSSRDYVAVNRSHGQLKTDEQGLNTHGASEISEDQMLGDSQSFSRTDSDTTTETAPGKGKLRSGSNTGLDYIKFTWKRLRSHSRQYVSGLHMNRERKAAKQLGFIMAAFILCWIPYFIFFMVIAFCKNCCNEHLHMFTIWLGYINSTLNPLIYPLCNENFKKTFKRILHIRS
Protocol: [^3H]-Pyrilamine binding experiments are carried out in SPA (scintillation proximity assay) 96-well format. Membranes used in this assay are prepared from HEK-293 cells stably expressing recombinant H1 receptor (human). The incubation is initiated by the addition of a mixture of WGA PVT SPA beads (1 mg/well, Perkin Elmer (MA, USA) RPNQ0001) and 3 μg membranes to assay buffer (67 mM Tris; pH 7.6) containing 3.5 nM [^3H]-Pyrilamine and varying concentrations of the test compound (10 point concentration response curves). Non-specific binding is determined in the presence of 10 μM Triprolidine. Samples are incubated for four hours at room temperature (22° C.) and then read in a Microbeta Trilux.
Curves are evaluated using a 4-parameter logistic nonlinear equation to obtain the concentration of competitor causing 50% inhibition of radioligand binding (IC50). Equilibrium dissociation constants (Ki) are calculated according to the equation Ki=IC50/(1+L/Kd), where L equals the concentration of radioligand used in the experiment and Kd equals the equilibrium dissociation constant of the radioligand for the receptor, determined from standard saturation analysis or homologous competition experiments. Reported values for Ki, where n values are indicated, are shown as geometric mean±the standard error of the mean (SEM), with the number of replicate determinations indicated by n. […]

[3] = molecular target: T2, human recombinant H1 receptor; test: H1 inverse agonism (IP1 accumulation in HEK293/hm H1 cells); type: cell-based; parameters: expressed in transfected cells; host or cells: HEK293 (HEK293/hm H1 clone R-40)
[4] = molecular target: Serotonin Transporter (Homo sapiens, UniProt P31645); test: Serotonin transporter assay; type: binding; conditions: dihydrochloride
Serotonin Transporter, sequence (P31645 whole entry): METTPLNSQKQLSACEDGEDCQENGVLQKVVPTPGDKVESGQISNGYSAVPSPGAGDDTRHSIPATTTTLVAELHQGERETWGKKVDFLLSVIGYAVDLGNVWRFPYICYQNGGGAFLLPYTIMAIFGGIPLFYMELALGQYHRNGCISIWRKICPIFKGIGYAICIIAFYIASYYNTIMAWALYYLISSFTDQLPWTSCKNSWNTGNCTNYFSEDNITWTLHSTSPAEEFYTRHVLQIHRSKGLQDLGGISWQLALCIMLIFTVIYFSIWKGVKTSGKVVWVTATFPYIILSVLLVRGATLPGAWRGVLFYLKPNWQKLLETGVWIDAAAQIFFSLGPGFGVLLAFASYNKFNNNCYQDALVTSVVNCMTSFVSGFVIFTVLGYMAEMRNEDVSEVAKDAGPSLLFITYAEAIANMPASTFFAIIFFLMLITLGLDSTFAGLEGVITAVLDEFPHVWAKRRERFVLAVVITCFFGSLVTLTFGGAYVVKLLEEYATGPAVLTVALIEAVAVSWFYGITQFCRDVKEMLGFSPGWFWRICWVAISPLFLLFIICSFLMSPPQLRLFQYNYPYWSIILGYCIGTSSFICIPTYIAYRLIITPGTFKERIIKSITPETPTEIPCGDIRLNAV
Text: Further, the compounds of the invention may be tested in binding assays and functional activity assays by well known methods for other physiologically important receptors such as, but not limited to, the hERG channel, other serotonin receptors (specifically 5-HT1A, 5-HT1B, 5-HT1D, 5-HT1E, 5-HT1F receptors, lack of agonist activity at 5-HT2B receptors, 5-HT2C, 5-HT4, 5-HTS, 5-HT6, and 5-HT7 receptors), muscarinic receptors, dopaminergic receptors (specifically D1, D2, and D3), GABAA receptors, adrenergic receptors and monoamine transporters. Certain exemplified compounds are tested at these receptors and are shown to lack significant activity.

Cc1cc2n(c1)Cc1cc(Cl)ccc1N=C2N1CCN(CC(C)(C)C(=O)O)CC1 [Example 13, 3-[4-(7-Chloro-2-methyl-5H-pyrrolo[2,1-c][1,4]benzodiazepin-11-yl)piperazin-1-yl]-2,2-dimethylpropanoic acid dihydrochloride]
ED50 [1]: 0.27 mg/kg | Ki [2]: 16.8 nM | IC50 ([3]; IP1 accumulation, HEK293/hm H1 cells): 53.9 ± 37 nM | suppression of constitutive activity (negative efficacy) ([3]; relative to positive control Tripelennamine 10 μM): 126±6% | Serotonin Transporter [4]: >515
